Measured values: US20250034147A1, “MDM2 DEGRADERS AND USES THEREOF” (Kymera Therapeutics, Inc., priority 2021, published 2025)

Molecular target: T1, HiBiT-tagged MDM2 (Homo sapiens, UniProt Q00987)
T1 construct: expressed in transfected cells
Experiment: MDM2 HiBit HEK293T degradation
Type: cell-based
Settings: HEK293T cells stably expressing C-terminally HiBiT-tagged MDM2; 4 h; read-out: MDM2 HiBit HEK293T degradation 4 h: Average external-Abs DC50
Procedure: HEK293T cells were grown overnight to 70-80% confluency in a 6-well plate in complete media (DMEM 10% FBS) in a 37° C. incubator with 5% CO2. Cells were transfected with 1 micrograms of C- or N-terminally HiBiT-tagged MDM2 constructs using Fugene 6 transfection reagent (Promega) as per manufacturer protocol. After overnight incubation at 37° C., growth media within the wells was replaced with selection media (DMEM+10% FBS+1 microgram/ml final concentration of Puromycin). Puromycin (selection antibiotic) concentrations required for complete cell kill were determined previously. Cells were monitored for the next 48h-96h to select for positively transfected cells. Surviving colonies were pooled and expanded in selection media. Expanded pools of HEK293T cells stably expressing C- and N-terminally HiBiT-tagged MDM2, were characterized using a MDM2 tool degrader and HaloPROTAC3 as positive control. HEK293T cells expressing C-terminally HiBiT-tagged MDM2 were subsequently used for assessment of degradation potencies for MDM2 degraders.
The letter codes for MDM2 degradation potency (DC50) include: A (<10 nM), B […], C (>100-1000 nM), and D (>1000 nM).

T1 sequence (Q00987 whole entry): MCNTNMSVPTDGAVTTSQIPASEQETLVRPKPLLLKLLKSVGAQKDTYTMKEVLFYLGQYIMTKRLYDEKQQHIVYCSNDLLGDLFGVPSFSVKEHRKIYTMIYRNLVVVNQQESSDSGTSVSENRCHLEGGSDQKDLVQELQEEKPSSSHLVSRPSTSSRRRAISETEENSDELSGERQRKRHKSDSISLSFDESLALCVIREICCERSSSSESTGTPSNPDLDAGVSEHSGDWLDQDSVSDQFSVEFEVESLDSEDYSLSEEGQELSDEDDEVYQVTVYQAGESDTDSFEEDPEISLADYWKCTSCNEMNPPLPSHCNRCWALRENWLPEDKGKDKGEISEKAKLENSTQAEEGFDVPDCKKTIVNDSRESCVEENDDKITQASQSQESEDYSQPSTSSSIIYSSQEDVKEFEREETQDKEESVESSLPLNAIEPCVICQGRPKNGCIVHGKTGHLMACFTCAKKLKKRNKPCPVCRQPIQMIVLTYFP

Row | SMILES | DC50 [nM]
1 | Cn1c(=O)n(C2CCC(=O)NC2=O)c2ccc(CN3CCN(CCN4CCC(NC(=O)[C@@H]5NC6(CCCCC6)[C@@]6(C(=O)Nc7cc(Cl)ccc76)[C@H]5c5cccc(Cl)c5F)CC4)CC3)cc21 (stereo partly drawn) [I-167] | 10 to 100
2 | Cn1c(=O)n(C2CCC(=O)NC2=O)c2ccc(CCCN3CCN(C[C@H]4CC[C@H](NC(=O)[C@@H]5NC6(CCCCC6)[C@@]6(C(=O)Nc7cc(Cl)ccc76)[C@H]5c5cccc(Cl)c5F)CC4)[C@@H](C(=O)NS(C)(=O)=O)C3)cc21 (stereo partly drawn) [I-222] | < 10
3 | Cn1c(=O)n(C2CCC(=O)NC2=O)c2ccc(C3CCN(CCN4CCN(C[C@H]5CC[C@H](NC(=O)[C@@H]6NC7(CCCCC7)[C@@]7(C(=O)Nc8cc(Cl)ccc87)[C@H]6c6cccc(Cl)c6F)CC5)[C@H](C(=O)O)C4)CC3)cc21 (stereo partly drawn) [I-227] | < 10
4 | Cn1c(=O)n(C2CCC(=O)NC2=O)c2ccc(CCCO[C@@H]3C[C@@H](C(=O)O)N(C[C@H]4CC[C@H](NC(=O)[C@@H]5NC6(CCCCC6)[C@@]6(C(=O)Nc7cc(Cl)ccc76)[C@H]5c5cccc(Cl)c5F)CC4)C3)cc21 (stereo partly drawn) [I-198] | 100 to 1000
5 | Cn1c(=O)n(C2CCC(=O)NC2=O)c2ccc(CCCCN3CCN(C[C@H]4CC[C@H](NC(=O)[C@@H]5NC6(CCCCC6)[C@@]6(C(=O)Nc7cc(Cl)ccc76)[C@H]5c5cccc(Cl)c5F)CC4)[C@@H](C(=O)O)C3)cc21 (stereo partly drawn) [I-214] | < 10
6 | Cn1c(=O)n(C2CCC(=O)NC2=O)c2ccc(CCCCCN3CCN(C[C@H]4CC[C@H](NC(=O)[C@@H]5NC6(CCCCC6)[C@@]6(C(=O)Nc7cc(Cl)ccc76)[C@H]5c5cccc(Cl)c5F)CC4)[C@H](C(=O)O)C3)cc21 (stereo partly drawn) [I-211] | < 10
7 | Cn1c(=O)n(C2CCC(=O)NC2=O)c2ccc(N3CCN(C(=O)CN4CCC(NC(=O)[C@@H]5NC6(CCCCC6)[C@@]6(C(=O)Nc7cc(Cl)ccc76)[C@H]5c5cccc(Cl)c5F)CC4)CC3)cc21 (stereo partly drawn) [I-125] | < 10
8 | O=C1CCN(c2cnc3cc(C4CCN(C(=O)CN5CCC(NC(=O)[C@@H]6NC7(CCCCC7)[C@@]7(C(=O)Nc8cc(Cl)ccc87)[C@H]6c6cccc(Cl)c6F)CC5)CC4)ccn23)C(=O)N1 [I-164] | 100 to 1000
9 | Cn1c(=O)n(C2CCC(=O)NC2=O)c2ccc([C@H]3CC[C@H](CN4CCC(NC(=O)[C@@H]5NC6(CCCCC6)[C@@]6(C(=O)Nc7cc(Cl)ccc76)[C@H]5c5cccc(Cl)c5F)CC4)CC3)cc21 (stereo partly drawn) [I-130] | < 10
10 | Cn1c(=O)n(C2CCC(=O)NC2=O)c2ccc(CCCN3CCN(C[C@H]4CC[C@H](NC(=O)[C@@H]5NC6(CCCCC6)[C@@]6(C(=O)Nc7cc(Cl)ccc76)[C@H]5c5cccc(Cl)c5F)CC4)C[C@H]3C(=O)O)cc21 (stereo partly drawn) [I-229] | < 10
11 | Cn1c(=O)n(C2CCC(=O)NC2=O)c2ccc(N3CCC(CC4(C(=O)O)CCN(C[C@H]5CC[C@H](NC(=O)[C@@H]6NC7(CCCCC7)[C@@]7(C(=O)Nc8cc(Cl)ccc87)[C@H]6c6cccc(Cl)c6F)CC5)CC4)CC3)cc21 (stereo partly drawn) [I-203] | < 10
12 | Cn1c(=O)n(C2CCC(=O)NC2=O)c2ccc(CCCO[C@@H]3C[C@H](C(=O)O)N(C(=O)[C@H]4CC[C@H](NC(=O)[C@@H]5NC6(CCCCC6)[C@@]6(C(=O)Nc7cc(Cl)ccc76)[C@H]5c5cccc(Cl)c5F)CC4)C3)cc21 (stereo partly drawn) [I-141] | 100 to 1000
13 | Cn1c(=O)n(C2CCC(=O)NC2=O)c2ccc(CCCO[C@@H]3C[C@H](C(=O)O)N(C[C@H]4CC[C@H](NC(=O)[C@@H]5NC6(CCCCC6)[C@@]6(C(=O)Nc7cc(Cl)ccc76)[C@H]5c5cccc(Cl)c5F)CC4)C3)cc21 (stereo partly drawn) [I-199] | 10 to 100
14 | Cn1c(=O)n(C2CCC(=O)NC2=O)c2ccc(CC3(C(=O)O)CCN(C(=O)[C@H]4CC[C@H](NC(=O)[C@@H]5NC6(CCCCC6)[C@@]6(C(=O)Nc7cc(Cl)ccc76)[C@H]5c5cccc(Cl)c5F)CC4)CC3)cc21 (stereo partly drawn) [I-131] | 100 to 1000
15 | CN(C(=O)[C@H]1CC[C@H](NC(=O)[C@@H]2NC3(CCCCC3)[C@@]3(C(=O)Nc4cc(Cl)ccc43)[C@H]2c2cccc(Cl)c2F)CC1)C1CCN(Cc2ccc3c(c2)n(C)c(=O)n3C2CCC(=O)NC2=O)CC1 (stereo partly drawn) [I-127] | < 10
16 | Cn1c(=O)n(C2CCC(=O)NC2=O)c2ccc(CCCN3CCN(C[C@H]4CC[C@H](NC(=O)[C@@H]5NC6(CCCCC6)[C@@]6(C(=O)Nc7cc(Cl)ccc76)[C@H]5c5cccc(Cl)c5F)CC4)C(C(=O)O)C3)cc21 (stereo partly drawn) [I-202] | < 10
17 | Cn1c(=O)n(C2CCC(=O)NC2=O)c2ccc(CCCN3CCN(C[C@H]4CC[C@H](NC(=O)[C@@H]5NC6(CCCCC6)[C@@]6(C(=O)Nc7cc(Cl)ccc76)[C@H]5c5cccc(Cl)c5F)CC4)[C@@H](C(=O)O)C3)cc21 (stereo partly drawn) [I-216] | < 10
18 | Cn1c(=O)n(C2CCC(=O)NC2=O)c2ccc(O[C@@H]3C[C@@H](C(=O)O)N(C[C@H]4CC[C@H](NC(=O)[C@@H]5NC6(CCCCC6)[C@@]6(C(=O)Nc7cc(Cl)ccc76)[C@H]5c5cccc(Cl)c5F)CC4)C3)cc21 (stereo partly drawn) [I-200] | 10 to 100

Row | SMILES | DC50 [nM]
19 | Cn1c(=O)n(C2CCC(=O)NC2=O)c2ccc(CCCN3CCN(C(=O)[C@@H]4CC[C@@H](NC(=O)[C@@H]5NC6(CCCCC6)[C@@]6(C(=O)Nc7cc(Cl)ccc76)[C@H]5c5cccc(Cl)c5F)CO4)CC3)cc21 (stereo partly drawn) [I-133] | < 10
20 | Cn1c(=O)n(C2CCC(=O)NC2=O)c2ccc(C3CCN(Cc4ccc(NC(=O)[C@@H]5NC6(CCCCC6)[C@@]6(C(=O)Nc7cc(Cl)ccc76)[C@H]5c5cccc(Cl)c5F)cc4C(=O)O)CC3)cc21 (stereo partly drawn) [I-171] | 10 to 100
21 | Cn1c(=O)n(C2CCC(=O)NC2=O)c2ccc(CN3CCN(C[C@H]4CC[C@H](NC(=O)[C@@H]5NC6(CCCCC6)[C@@]6(C(=O)Nc7cc(Cl)ccc76)[C@H]5c5cccc(Cl)c5F)CC4)C(C(=O)O)C3)cc21 (stereo partly drawn) [I-196] | 10 to 100
22 | Cn1c(=O)n(C2CCC(=O)NC2=O)c2ccc(N3CCC(N4CCC(NC(=O)[C@@H]5NC6(CCCCC6)[C@@]6(C(=O)Nc7cc(Cl)ccc76)[C@H]5c5cccc(Cl)c5F)CC4)CC3)cc21 (stereo partly drawn) [I-139] | < 10
23 | Cn1c(=O)n(C2CCC(=O)NC2=O)c2ccc(CCCO[C@@H]3C[C@@H](C(=O)O)N(C(=O)[C@H]4CC[C@H](NC(=O)[C@@H]5NC6(CCCCC6)[C@@]6(C(=O)Nc7cc(Cl)ccc76)[C@H]5c5cccc(Cl)c5F)CC4)C3)cc21 (stereo partly drawn) [I-136] | 10 to 100
24 | Cn1c(=O)n(C2CCC(=O)NC2=O)c2ccc(C3CCN([C@H]4CC[C@H](N5CCC(NC(=O)[C@@H]6NC7(CCCCC7)[C@@]7(C(=O)Nc8cc(Cl)ccc87)[C@H]6c6cccc(Cl)c6F)CC5)CC4)CC3)cc21 (stereo partly drawn) [I-155] | < 10
25 | C[C@@H]1CN(C(=O)[C@H]2CC[C@H](NC(=O)[C@@H]3NC4(CCCCC4)[C@@]4(C(=O)Nc5cc(Cl)ccc54)[C@H]3c3cccc(Cl)c3F)CC2)CCN1CCc1ccc2c(c1)n(C)c(=O)n2C1CCC(=O)NC1=O (stereo partly drawn) [I-122] | < 10
26 | Cc1ncsc1-c1ccc(CNC(=O)[C@@H]2C[C@@H](O)CN2C(=O)[C@@H](NC(=O)C2(F)CC2)C(C)(C)C)c(OCCCC2CCN(C[C@H]3CC[C@H](NC(=O)[C@@H]4NC5(CCCCC5)[C@@]5(C(=O)Nc6cc(Cl)ccc65)[C@H]4c4cccc(Cl)c4F)CC3)CC2)c1 [I-204] | > 1000
27 | Cn1c(=O)n(C2CCC(=O)NC2=O)c2ccc(CCC(=O)N3CCN(C[C@H]4CC[C@H](NC(=O)[C@@H]5NC6(CCCCC6)[C@@]6(C(=O)Nc7cc(Cl)ccc76)[C@H]5c5cccc(Cl)c5F)CC4)CC3)cc21 (stereo partly drawn) [I-134] | < 10
28 | Cn1c(=O)n(C2CCC(=O)NC2=O)c2ccc(CCCC3(CC(=O)O)CCN(C(=O)[C@H]4CC[C@H](NC(=O)[C@@H]5NC6(CCCCC6)[C@@]6(C(=O)Nc7cc(Cl)ccc76)[C@H]5c5cccc(Cl)c5F)CC4)CC3)cc21 (stereo partly drawn) [I-132] | 100 to 1000
29 | Cn1c(=O)n(C2CCC(=O)NC2=O)c2ccc(CCN3CCN(C[C@H]4CC[C@H](NC(=O)[C@@H]5NC6(CCCCC6)[C@@]6(C(=O)Nc7cc(Cl)ccc76)[C@H]5c5cccc(Cl)c5F)CC4)C(C(=O)O)C3)cc21 (stereo partly drawn) [I-197] | < 10
30 | Cn1c(=O)n(C2CCC(=O)NC2=O)c2ccc(CCCCCN3CCN(C[C@H]4CC[C@H](NC(=O)[C@@H]5NC6(CCCCC6)[C@@]6(C(=O)Nc7cc(Cl)ccc76)[C@H]5c5cccc(Cl)c5F)CC4)[C@@H](C(=O)O)C3)cc21 (stereo partly drawn) [I-212] | < 10
31 | O=C1CCN(c2cnc3cc(N4CCN(CCN5CCC(NC(=O)[C@@H]6NC7(CCCCC7)[C@@]7(C(=O)Nc8cc(Cl)ccc87)[C@H]6c6cccc(Cl)c6F)CC5)CC4)ccn23)C(=O)N1 [I-169] | 10 to 100
32 | Cc1ncsc1-c1ccc(CNC(=O)[C@@H]2C[C@@H](O)CN2C(=O)[C@@H](NC(=O)CCCCC2CCN(C(=O)[C@H]3CC[C@H](NC(=O)[C@@H]4NC5(CCCCC5)[C@@]5(C(=O)Nc6cc(Cl)ccc65)[C@H]4c4cccc(Cl)c4F)CC3)CC2)C(C)(C)C)cc1 [I-148] | > 1000
33 | Cn1c(=O)n(C2CCC(=O)NC2=O)c2ccc(N3CCN(C(=O)[C@H]4CC[C@H](NC(=O)[C@@H]5NC6(CCCCC6)[C@@]6(C(=O)Nc7cc(Cl)ccc76)[C@H]5c5cccc(Cl)c5F)CC4)C(C(=O)O)C3)cc21 (stereo partly drawn) [I-142] | 10 to 100
34 | Cn1c(=O)n(C2CCC(=O)NC2=O)c2cccc(C3CCN(CCN4CCC(NC(=O)[C@@H]5NC6(CCCCC6)[C@@]6(C(=O)Nc7cc(Cl)ccc76)[C@H]5c5cccc(Cl)c5F)CC4)CC3)c21 (stereo partly drawn) [I-152] | < 10
35 | Cc1ncsc1-c1ccc(CNC(=O)[C@@H]2C[C@@H](O)CN2C(=O)[C@@H](NC(=O)C2(F)CC2)C(C)(C)C)c(OCCCCCCCCNC(=O)[C@H]2CC[C@H](NC(=O)[C@@H]3NC4(CCCCC4)[C@@]4(C(=O)Nc5cc(Cl)ccc54)[C@H]3c3cccc(Cl)c3F)CC2)c1 [I-149] | > 1000
36 | O=C1CCN(c2ccc(CCCCN3CCN(C[C@H]4CC[C@H](NC(=O)[C@@H]5NC6(CCCCC6)[C@@]6(C(=O)Nc7cc(Cl)ccc76)[C@H]5c5cccc(Cl)c5F)CC4)CC3)cc2)C(=O)N1 [I-208] | > 1000
